In US9771360B2, “Cyano-substituted imidazo[1,2-A]pyridinecarboxamides and their use” (Bayer Pharma Aktiengesellschaft, priority 2014, dated 2017) one finds MEC data, which are given here for twelve compounds.

In the experiment the target is T1, recombinant guanylate cyclase reporter cell line (Rattus norvegicus, UniProt P19686+P20595).
T1 construct: expressed in transfected cells
T1 sequence (P20595 1-619): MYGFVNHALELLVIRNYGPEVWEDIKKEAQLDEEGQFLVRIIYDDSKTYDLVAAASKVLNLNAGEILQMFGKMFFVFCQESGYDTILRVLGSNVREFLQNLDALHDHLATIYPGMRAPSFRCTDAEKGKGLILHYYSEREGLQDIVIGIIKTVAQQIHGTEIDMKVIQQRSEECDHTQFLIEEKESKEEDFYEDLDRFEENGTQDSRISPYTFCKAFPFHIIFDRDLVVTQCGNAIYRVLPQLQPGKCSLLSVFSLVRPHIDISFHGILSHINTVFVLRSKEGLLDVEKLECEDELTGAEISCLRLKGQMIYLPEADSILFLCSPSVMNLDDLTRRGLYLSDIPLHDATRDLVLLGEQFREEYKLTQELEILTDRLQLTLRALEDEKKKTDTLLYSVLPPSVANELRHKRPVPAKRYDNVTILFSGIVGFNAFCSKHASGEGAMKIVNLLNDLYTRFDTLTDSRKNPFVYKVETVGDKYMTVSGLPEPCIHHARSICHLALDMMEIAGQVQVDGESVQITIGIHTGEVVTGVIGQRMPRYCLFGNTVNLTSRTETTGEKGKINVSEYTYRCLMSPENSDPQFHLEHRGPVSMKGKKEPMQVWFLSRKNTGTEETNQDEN
T1 sequence (P19686 1-690): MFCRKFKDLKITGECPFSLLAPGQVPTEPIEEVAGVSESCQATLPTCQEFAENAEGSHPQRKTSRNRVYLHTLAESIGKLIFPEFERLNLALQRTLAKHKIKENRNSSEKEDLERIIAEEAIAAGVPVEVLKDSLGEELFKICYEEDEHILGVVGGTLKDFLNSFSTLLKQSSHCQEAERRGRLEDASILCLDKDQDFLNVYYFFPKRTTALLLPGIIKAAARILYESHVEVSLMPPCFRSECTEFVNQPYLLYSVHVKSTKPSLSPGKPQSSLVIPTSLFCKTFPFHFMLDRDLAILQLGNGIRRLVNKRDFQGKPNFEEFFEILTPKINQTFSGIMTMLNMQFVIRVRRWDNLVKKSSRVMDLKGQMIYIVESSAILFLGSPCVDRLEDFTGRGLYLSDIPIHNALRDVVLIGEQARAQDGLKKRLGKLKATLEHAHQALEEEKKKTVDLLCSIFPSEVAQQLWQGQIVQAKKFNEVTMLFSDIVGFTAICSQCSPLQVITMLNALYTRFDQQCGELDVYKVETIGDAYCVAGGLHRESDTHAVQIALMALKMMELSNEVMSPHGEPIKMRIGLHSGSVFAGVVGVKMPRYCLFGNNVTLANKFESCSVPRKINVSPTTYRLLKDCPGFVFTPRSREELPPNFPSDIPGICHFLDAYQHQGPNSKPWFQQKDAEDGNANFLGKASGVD
Description: Effect on a recombinant guanylate cyclase reporter cell line (B-2). The conditions noted are these: MEC = minimum effective concentration; in some cases mean values from individual determinations. The class given is cell-based. The protocol:
B-2. Effect on a Recombinant Guanylate Cyclase Reporter Cell Line
The cellular activity of the compounds according to the invention is determined using a recombinant guanylate cyclase reporter cell line, as described in F. Wunder et al., Anal. Biochem. 339, 104-112 (2005).
Representative MEC values (MEC=minimum effective concentration) for the compounds of the invention are shown in the table below (in some cases as mean values from individual determinations): […]
Turning to `Cc1nc2c(OCc3ncccc3F)cccn2c1C(=O)NC(C#N)c1ccc(Cl)cc1` (racemic) [Example 21, rac-N-[(4-chlorophenyl)(cyano)methyl]-8-[(3-fluoropyridin-2-yl)methoxy]-2-methylimidazo[1,2-a]pyridine-3-carboxamide], the MEC was 10 µM.

As to `Cc1nc2c(OCc3c(F)cccc3F)cc(Cl)cn2c1C(=O)NC(C#N)c1ccc(Cl)cc1` (racemic) [Example 29, rac-6-chloro-N-[(4-chlorophenyl)(cyano)methyl]-8-[(2,6-difluorobenzyl)oxy]-2-methylimidazo[1,2-a]pyridine-3-carboxamide], the MEC was found to be 1 µM.

As for `Cc1cc(OCc2c(F)cccc2F)c2nc(C)c(C(=O)NC3(C#N)CC3)n2c1` [Example 4, N-(1-cyanocyclopropyl)-8-[(2,6-difluorobenzyl)oxy]-2,6-dimethylimidazo[1,2-a]pyridine-3-carboxamide], the MEC stood at 0.3 µM.

On to `N#CC(NC(=O)c1cnc2c(OCc3c(F)cccc3F)cccn12)c1ccc(Cl)cc1` (racemic) [Example 18, rac-N-[(4-chlorophenyl)(cyano)methyl]-8-[(2,6-difluorobenzyl)oxy]imidazo[1,2-a]pyridine-3-carboxamide], for which the MEC worked out at 10 µM.

For `Cc1cc(OCc2c(F)cccc2F)c2nc(C)c(C(=O)NC(C)(C#N)C3CC3)n2c1` (racemic) [Example 6, rac-N-(1-cyano-1-cyclopropylethyl)-8-[(2,6-difluorobenzyl)oxy]-2,6-dimethylimidazo[1,2-a]pyridine-3-carboxamide], the MEC is 0.1 µM.

For the compound `Cc1cc(OCc2c(F)cccc2F)c2nc(C)c(C(=O)NCC(N)CC#N)n2c1` (single isomer, unassigned) [Example 43, ent-N-(2-Amino-3-cyanopropyl)-8-[(2,6-difluorobenzyl)oxy]-2,6-dimethylimidazo[1,2-a]pyridine-3-carboxamide], the MEC is 1 µM.

In the case of `Cc1cc(OCc2c(F)cccc2F)c2nc(C)c(C(=O)NC(C#N)c3ccc(Cl)cc3)n2c1` (racemic) [Example 8, rac-N-[(4-chlorophenyl)(cyano)methyl]-8-[(2,6-difluorobenzyl)oxy]-2,6-dimethylimidazo[1,2-a]pyridine-3-carboxamide], the MEC came to 0.1 µM.

Turning to `COc1ccc(NC(=O)c2c(C)nc3c(OCc4c(F)cccc4F)cc(C)cn23)cc1C#N` [Example 37, N-(3-cyano-4-methoxyphenyl)-8-[(2,6-difluorobenzyl)oxy]-2,6-dimethylimidazo[1,2-a]pyridine-3-carboxamide], the MEC was determined as 0.3 µM.

For `COc1cc(OCc2c(F)cccc2F)c2nc(C)c(C(=O)NC(C#N)c3ccc(Cl)cc3)n2c1` (racemic) [Example 28, rac-N-[(4-chlorophenyl)(cyano)methyl]-8-[(2,6-difluorobenzyl)oxy]-6-methoxy-2-methylimidazo[1,2-a]pyridine-3-carboxamide], the MEC came to 1 µM.

Take `Cc1cc(OCc2c(F)cccc2F)c2nc(C)c(C(=O)NC3CNCC(C#N)C3)n2c1` (stereo not drawn) [Example 38, N-(5-Cyanopiperidin-3-yl)-8-[(2,6-difluorobenzyl)oxy]-2,6-dimethylimidazo[1,2-a]pyridine-3-carboxamide]: the MEC came out at 0.3 µM.

On to `Cc1cc(OCc2ncccc2F)c2nc(C)c(C(=O)NC(C#N)c3ccc(Cl)cc3)n2c1` (racemic) [Example 19, rac-N-[(4-chlorophenyl)(cyano)methyl]-8-[(3-fluoropyridin-2-yl)methoxy]-2,6-dimethylimidazo[1,2-a]pyridine-3-carboxamide], for which the MEC came out at 1 µM.

On to `Cc1cc(OCc2c(F)cccc2F)c2nc(C)c(C(=O)NCC(N)CCCC#N)n2c1` (single isomer, unassigned) [Example 46, ent-N-(2-Amino-5-cyanopentyl)-8-[(2,6-difluorobenzyl)oxy]-2,6-dimethylimidazo[1,2-a]pyridine-3-carboxamide], for which the MEC came out at 3 µM.
